According to publication PMC6430500, “3-Fluoro-4-hydroxyprolines: Synthesis, Conformational Analysis, and Stereoselective Recognition by the VHL E3 Ubiquitin Ligase for Targeted Protein Degradation” (Journal of the American Chemical Society, 2018):
Where two headings read alike, the source gives them in different places.

Columns and labels:
Brd4BD2 = biological target: T1, Brd4BD2 (Homo sapiens, UniProt O60885); experiment: ITC of PROTACs, binary titration with Brd4BD2; assay type: binding; conditions: PROTAC in cell, Brd4BD2 in syringe
T1 construct: Brd4BD2 (333–460); made in house; host or cells: E. coli BL21(DE3)
Source text: (§1) structure (C2 R, C3 S, C4 R) assumed on the basis of unchanging stereogenic centres in the synthesis.
(§2) Final R(F) = 0.033, wR(F 2) = 0.085 for 275 parameters and 3901 reflections with I > 2σ(I) (corresponding R-values based on all 4067 reflections = 0.035 and 0.086, respectively), CCDC […]
(§3) Protein expression and purification.
(§4) Wild-type versions of human proteins VHL (UniProt accession number: P40337), ElonginC […]
(§5) expression. For expression of VBC, N-terminally His6-tagged VHL (54–213), ElonginC (17–112) and ElonginB (1–104) were co- expressed in Escherichia coli BL21(DE3) at 24 °C for 16 h using 0.3 mM isopropyl β-D -1-thiogalactopyranoside (IPTG). E. coli cells were lysed using a pressure cell homogenizer (Stansted Fluid Power) and lysate clarified by centrifugation. His6-tagged VCB was purified on a HisTrap FF affinity column (GE Healthcare) by elution with an imidazole gradient. The His6tag was removed using TEV protease and the untagged complex dialyzed into low -concentration imidazole buffer. VCB was then flowed through the HisTrap FF column a second time, allowing impurities to bind, as the complex eluted without binding. VCB was then additionally purified by anion exchange and size-exclusion chromatography using ResourceQ and Superdex-75 columns (GE Healthcare), respectively. The final purified complex was stored in 20 mM Bis–Tris, pH 7, 150 mM sodium chloride and 1 mM dithiothreitol (DTT). Brd2BD1 (71–194), and Brd4BD2 (333–460) were expressed with an N-terminal His6 tag in E. coli BL21(DE3) at 18 °C for 20 h using 0.2 mM IPTG.
(§6) His6-tagged BDs were purified on nickel Sepharose 6 fast flow beads (GE Healthcare) by elution with increasing concentrations of imidazole. For crystallography the His6-tagged BD was cleaved with TEV protease and dialyzed into low-concentration imidazole buffer. The BD was then flowed over the nickel beads a second time to remove impurities and protease. BDs were then additionally purified by size-exclusion chromatography using a Superdex-75 column. The BDs were purified by size-exclusion chromatography using a Superdex-75 column. The final purified proteins were stored in 20 mM 4-(2-hydroxyethyl)-1-piperazineethanesulfonic acid (HEPES), pH 7.5, 150 mM sodium chloride and 1 mM DTT. All chromatography purification steps were performed using Äkta FPLC purification systems (GE Healthcare) or glass econo-columns (Bio-Rad) at room temperature.
(§7) Isothermal titration calorimetry (ITC) of peptides and ligands
(§8) Titrations were performed on an ITC200 micro-calorimeter (GE Healthcare). The peptides were dissolved in buffer (20 mM Bis–Tris propane, 100 mM NaCl, 1 mM tris(2-carboxyethyl)phosphine […]
(§9) (TCEP), pH 7.4) at 100 µM. The compounds were titrated against 10 µM VBC complex, equilibrated in the same buffer. The titrations consisted of 20 injections of 2 µL of peptide solution at a rate of 0.5 µL/s at 120 s time intervals. An initial injection of ligand (0.4 µL) was made and discarded during data analysis. All experiments were performed at 25°C while stirring at 650 rpm.
(§10) Ligands 14a- b were diluted from DMSO stock solution to 300 µM in buffer (20 mM Bis-Tris propane, 150 mM NaCl, 1 mM TCEP, pH 7.4). The compounds were titrated against 30 µM VBC complex, equilibrated in the same buffer. The final concentration of DMSO in each experiment was […]
(§11) The data were fitted to a single-binding-site model using the MicroCal PEAQ-ITC analysis software provided by the manufacturer to obtain the stoichiometry n, the dissociation constant K d, and the enthalpy of binding ΔH . The reported values are the mean ± s.e.m. from independent measurements.
(§12) Isothermal titration calorimetry (ITC)of PROTACs
(§13) The titrations were all performed as reverse mode (protein in syringe, ligand in cell) and consisted of 19 injections of 2 µl protein solution (20 mM Bis–Tris propane, 100 mM NaCl, 1 mM tris(2-carboxyethyl)phosphine (TCEP), pH 7.4) at a rate of 0.5 µl/s at 120 s time intervals. An initial injection (0.4 µl) was made and discarded during data analysis. […]

A549 cells = experiment: A549 colony-formation assay; assay type: cell-based; conditions: 7 days, crystal violet
Experimental: A549 Colony-Formation Assay
A549 cells were seeded in clear, Nunc™ Edge 2.0 96 -w ell plates (Thermo Scientific) at 1000 cells per well and incubated at 37°C in DMEM. After 24 h cells were treated with test compounds from 10 µM to 100 nM , with a final DM SO of 0.1%. The cells were left to grow until DM SO -treated wells reached ~100% confluence (~8 days), at which point they were washed with PBS, fixed with 100% MeOH (30 min 4°C), stained with 0.1% crystal violet (30 min at r.t.) and left to dry overnight. Once dried plates were imaged on an Epson Perfection V800 scanner, at a resolution of 1200 DPI and in 48 -bit colour.
For dose-response curves, crystal-violet dye was extracted by the addition of 200 µl 1% SDS to each well, and incubation for 3 h at r.t. The absorbance at 595nm of each well was measured on a Pherastar FS (BMG), normalised for each compound and plotted against compound concentration.
(1 picture or pasted object on this page, not shown here)

VBC and Brd4BD2 = biological target: T2, VBC and Brd4BD2 (Homo sapiens, UniProt O60885+P40337); experiment: ITC ternary complex formation, VBC titrated into PROTAC:Brd4BD2; assay type: binding; conditions: for α (cooperativity): Kd binary,VBC/Kd ternary; for α (cooperativity) / ΔΔG: Brd4BD2; for Kd / ΔG / ΔH / –TΔS: PROTAC:Brd4BD2 in cell, VBC in syringe; for ΔΔG: ternary vs binary
T2 construct: VHL (54–213), ElonginC (17–112) and; Brd4BD2 (333–460); His6 (N, cleaved yes); made in house; host or cells: E. coli BL21(DE3)
Source text: as §1, §2, §3, §4, §5, §6, §7, §8, §9, §10, §11, §12, §13

MV4;11 cells = experiment: CellTiter-Glo cell viability assay; assay type: cell-based; conditions: for EC50: MV4-11, 72 h
Experimental: MV4;11 cells (15000 cells per well) were dosed for 72 h with compounds serially diluted (1:3) on a clear-bottom 384-well plate with a final concentration of 0.05% (v/v) DMSO. After treatment, Promega CellTiter-Glo luminescent cell viability assay (G7572) was added to the cells according to the manufacturer instructions. The signal from each well was recorded on a BM G Labtech Pherastar luminescence plate reader with recommended settings.
Normalized data were analyzed and plotted with Graphpad Prism software in the ‘log(inhibitor) vs. response -- Variable slope (four parameters)’ module. EC50 values of each test compound were […]

Kd (Brd4BD2) | ΔG (Brd4BD2) | ΔH (Brd4BD2) | –TΔS (Brd4BD2) | α (cooperativity) (VBC and Brd4BD2) | Kd (VBC and Brd4BD2) | ΔG (VBC and Brd4BD2) | ΔH (VBC and Brd4BD2) | –TΔS (VBC and Brd4BD2) | ΔΔG (VBC and Brd4BD2) | pEC50, antiproliferative activity (MV4;11 cells; 72 h) | EC50 (MV4;11 cells; Homo sapiens, read-out: EC50, antiproliferative activity) | EC50 (MV4;11 cells; Homo sapiens, read-out: pEC50, antiproliferative activity (converted)) | Compound | effect on cell growth, colony formation (in words) (A549 cells) | Emax (MV4;11 cells; Homo sapiens, 72 h, read-out: Emax, maximal response at highest concentration) | antiproliferative effect (in words) (MV4;11 cells; 72 h, compared to MZ1 or 15a)
28 ± 2 nM | -10.30 kcal/mol | -10.4 ± 0.8 kcal/mol | 0.1 ± 0.6 kcal/mol | 9.5 | 26 ± 5 nM | -10.13 kcal/mol | -10.9 ± 0.7 kcal/mol | -0.6 ± 0.4 kcal/mol | -1.12 kcal/mol | 6.5 | 330 nM | 330 nM | Cc1ncsc1-c1ccc(CNC(=O)[C@@H]2[C@@H](F)[C@@H](O)CN2C(=O)[C@@H](NC(=O)COCCOCCOCCNC(=O)C[C@@H]2N=C(c3ccc(Cl)cc3)c3c(sc(C)c3C)-n3c(C)nnc32)C(C)(C)C)cc1 [15a] | profound concentration-dependent cytotoxicity | 92% | –
32 ± 3 nM | -10.3 ± 0.1 kcal/mol | -9.3 ± 0.4 kcal/mol | -0.9 ± 0.4 kcal/mol | 14.5 | 42 ± 6 nM | -10.01 kcal/mol | -7.75 kcal/mol | -2.34 kcal/mol | -1.6 ± 0.1 kcal/mol | – | – | – | Cc1ncsc1-c1ccc(CNC(=O)[C@@H]2[C@H](F)[C@@H](O)CN2C(=O)[C@@H](NC(=O)COCCOCCOCCNC(=O)C[C@@H]2N=C(c3ccc(Cl)cc3)c3c(sc(C)c3C)-n3c(C)nnc32)C(C)(C)C)cc1 [15b] | affected cell growth only modestly | – | much weaker antiproliferative effect
